Assay: excess molar enthalpy (molar enthalpy of mixing); xn = mol fraction of the nth substance listed
Conditions: 298.15 K, 101 kPa, Liquid, ISOTHERMAL TITRATION CALORIMETRY

CCCCCOCCCCC [dipentyl ether] + CCCCCCCCCCCC
Conditions | excess molar enthalpy [kcal/mol]
x1 = 0.0242 | 0.00454
x1 = 0.0473 | 0.00884
x1 = 0.0693 | 0.0122
x1 = 0.0903 | 0.0155
x1 = 0.1104 | 0.0184
x1 = 0.1296 | 0.021
x1 = 0.148 | 0.0234
x1 = 0.1657 | 0.0256
x1 = 0.1869 | 0.028
x1 = 0.2071 | 0.0301
x1 = 0.2262 | 0.032
x1 = 0.2445 | 0.0337
x1 = 0.2619 | 0.0351
x1 = 0.2786 | 0.0363
x1 = 0.2989 | 0.0378
x1 = 0.3181 | 0.039
x1 = 0.3363 | 0.0399
x1 = 0.3535 | 0.0409
x1 = 0.3699 | 0.0416
x1 = 0.3855 | 0.0423
x1 = 0.4003 | 0.0425
x1 = 0.4144 | 0.0428
x1 = 0.431 | 0.0433
x1 = 0.4466 | 0.0433
x1 = 0.4614 | 0.0435
x1 = 0.4754 | 0.0435
x1 = 0.4887 | 0.0435
x1 = 0.5014 | 0.0433
x1 = 0.5129 | 0.0433
x1 = 0.5241 | 0.0433
x1 = 0.5358 | 0.043
x1 = 0.5481 | 0.043
x1 = 0.5609 | 0.0428
x1 = 0.5743 | 0.0425
x1 = 0.5884 | 0.0423
x1 = 0.6031 | 0.0418
x1 = 0.6161 | 0.0413
x1 = 0.6297 | 0.0409
x1 = 0.644 | 0.0402
x1 = 0.6589 | 0.0397
x1 = 0.6745 | 0.0387
x1 = 0.6908 | 0.0378
x1 = 0.7056 | 0.0366
x1 = 0.721 | 0.0354
x1 = 0.7371 | 0.0342
x1 = 0.7539 | 0.0327
x1 = 0.7715 | 0.0313
x1 = 0.79 | 0.0294
x1 = 0.8057 | 0.028
x1 = 0.8221 | 0.0261
x1 = 0.8391 | 0.0241
x1 = 0.8569 | 0.022
x1 = 0.8754 | 0.0196
x1 = 0.8947 | 0.0167
x1 = 0.9107 | 0.0146
x1 = 0.9273 | 0.0122
x1 = 0.9445 | 0.00956
x1 = 0.9623 | 0.00645
x1 = 0.9808 | 0.00335

CCCCCOCCCCC [dipentyl ether] + CCCCCCCCCCCCCCCC
Conditions | excess molar enthalpy [kcal/mol]
x1 = 0.0349 | 0.00884
x1 = 0.0674 | 0.0165
x1 = 0.0979 | 0.0229
x1 = 0.1264 | 0.0287
x1 = 0.1531 | 0.0335
x1 = 0.1783 | 0.0378
x1 = 0.2066 | 0.0423
x1 = 0.233 | 0.0461
x1 = 0.2577 | 0.0495
x1 = 0.2809 | 0.0523
x1 = 0.3027 | 0.0545
x1 = 0.3231 | 0.0564
x1 = 0.3459 | 0.0583
x1 = 0.3673 | 0.0598
x1 = 0.3873 | 0.0612
x1 = 0.4061 | 0.0621
x1 = 0.4238 | 0.0629
x1 = 0.4405 | 0.0633
x1 = 0.4593 | 0.0638
x1 = 0.4768 | 0.0641
x1 = 0.4933 | 0.0643
x1 = 0.5087 | 0.0643
x1 = 0.5158 | 0.0645
x1 = 0.5271 | 0.0645
x1 = 0.5389 | 0.0643
x1 = 0.5491 | 0.0643
x1 = 0.5598 | 0.0641
x1 = 0.5706 | 0.0638
x1 = 0.5823 | 0.0633
x1 = 0.5943 | 0.0629
x1 = 0.6067 | 0.0624
x1 = 0.6197 | 0.0617
x1 = 0.6333 | 0.0607
x1 = 0.645 | 0.06
x1 = 0.6527 | 0.059
x1 = 0.6699 | 0.0578
x1 = 0.6831 | 0.0566
x1 = 0.6968 | 0.0552
x1 = 0.7111 | 0.0535
x1 = 0.7238 | 0.0519
x1 = 0.737 | 0.0504
x1 = 0.7506 | 0.0485
x1 = 0.7648 | 0.0464
x1 = 0.7795 | 0.0442
x1 = 0.7984 | 0.0416
x1 = 0.8182 | 0.039
x1 = 0.8315 | 0.0363
x1 = 0.8512 | 0.0332
x1 = 0.8718 | 0.0301
x1 = 0.8935 | 0.0265
x1 = 0.9162 | 0.0227
x1 = 0.9292 | 0.0196
x1 = 0.9425 | 0.0163
x1 = 0.9563 | 0.0124
x1 = 0.9704 | 0.0086
x1 = 0.985 | 0.00454

CCCCCCCCC(C)=O [2-decanone] + CCCCCCCCCCCCCC
Conditions | excess molar enthalpy [kcal/mol]
x1 = 0.0282 | 0.0361
x1 = 0.0549 | 0.0664
x1 = 0.0805 | 0.092
x1 = 0.1041 | 0.114
x1 = 0.1268 | 0.132
x1 = 0.1484 | 0.148
x1 = 0.1741 | 0.165
x1 = 0.1983 | 0.18
x1 = 0.2212 | 0.192
x1 = 0.2427 | 0.202
x1 = 0.2632 | 0.211
x1 = 0.2825 | 0.218
x1 = 0.3044 | 0.225
x1 = 0.325 | 0.23
x1 = 0.3444 | 0.235
x1 = 0.3628 | 0.238
x1 = 0.3801 | 0.241
x1 = 0.3965 | 0.243
x1 = 0.4145 | 0.245
x1 = 0.4313 | 0.245
x1 = 0.4472 | 0.246
x1 = 0.4623 | 0.246
x1 = 0.4765 | 0.245
x1 = 0.4901 | 0.245
x1 = 0.5029 | 0.244
x1 = 0.5151 | 0.242
x1 = 0.5292 | 0.241
x1 = 0.5425 | 0.239
x1 = 0.555 | 0.236
x1 = 0.5669 | 0.234
x1 = 0.5782 | 0.232
x1 = 0.5889 | 0.229
x1 = 0.5991 | 0.227
x1 = 0.6088 | 0.224
x1 = 0.6201 | 0.221
x1 = 0.6308 | 0.217
x1 = 0.6408 | 0.214
x1 = 0.6504 | 0.211
x1 = 0.6594 | 0.208
x1 = 0.668 | 0.205
x1 = 0.6762 | 0.202
x1 = 0.684 | 0.199
x1 = 0.7031 | 0.189
x1 = 0.7191 | 0.182
x1 = 0.7334 | 0.176
x1 = 0.7483 | 0.169
x1 = 0.7638 | 0.162
x1 = 0.7799 | 0.154
x1 = 0.7968 | 0.145
x1 = 0.8144 | 0.135
x1 = 0.8298 | 0.126
x1 = 0.8458 | 0.116
x1 = 0.8624 | 0.106
x1 = 0.8797 | 0.0939
x1 = 0.8977 | 0.0815
x1 = 0.9133 | 0.07
x1 = 0.9294 | 0.0578
x1 = 0.9461 | 0.0452
x1 = 0.9634 | 0.0311
x1 = 0.9814 | 0.016
